# Data from patent publication US8314058B2, “Uptake of macromolecules” (Axcess Limited, priority 2003, dated 2012).
# Tested on: juvenile pigs
# Test: In vivo efficacy of tablets containing chenodeoxycholate/propyl gallate/calcitonin mixture in juvenile pigs (blood calcium)
# Conditions: 400 iu s.c., six hour period
# Experimental: Blood calcium levels are measured at intervals over a six hour period and mean change in AUC of plasma calculated is calculated in h·mmol/l.
substance,measurement,value
salmon calcitonin,AUC (mean change in AUC of plasma calcium),-1.79 mmol·h/L
